Laboratory results taken from patent publication US20230219251A1, “MULTIFUNCTIONAL WOOD PRESERVATIVE COMPOSITION AND WOOD PRESERVATION TREATMENT METHOD USING THE SAME” (KOREA INSTITUTE OF SCIENCE AND TECHNOLOGY, priority 2022, published 2023).

Experiments:
[1] = pH of the prepared solutions; type: physicochemical
Experimental: (§1) Specifically, 150 g of BA was added, and HH was added at ratios shown in Table 1 after addition of water (distilled water), followed by reaction at a temperature of each reaction solution of 60° C. The termination time point of the reaction was when the solution became a transparent solution. The degree of precipitation was analyzed one day after the completion of the reaction.
Hydrazine borates (#7 to #11) with different BAE levels were synthesized by varying the amounts of BA and HH. Specifically, BA was added at proportions shown in Table 3 below, and water was added and HH was added, followed by reaction at a temperature of each reaction solution of 60° C. Then, the termination time point of the reaction was when the solution became a transparent solution. The degree of precipitation was analyzed one month after the completion of the reaction.

[2] = 30 wt % BAE; one day after completion of the reaction
Experimental: Hydrazine borates (#1 to #6) were synthesized by varying the amounts of boric acid (BA) and hydrazine hydrate (HH) while fixing the boric acid equivalent (BAE) level to 30 wt %.
as §1

[3] = cited from earlier work
[4] = tested on: Coptotermes formosanus; details: cited from earlier work
[5] = tested on: Reticulitermes speratus; details: cited from earlier work
[6] = tested on: rot fungi; details: cited from earlier work
[7] = tested on: wood-boring insects; details: cited from earlier work
[8] = Test on dilution stability
Experimental: The precipitation or lack thereof over time was visually observed while the tube was shaken every 6 hours, and the results are shown in Table 14.

[9] = reaction solutions of Example 2, 40-71 wt % BAE
[10] = reaction solutions of Example 1, 30 wt % BAE

## hydrazine borate [#10]
[1]; [9]
  pH: 8.40

## hydrazine borate [#5]
[1]; [10]
  pH: 6.33

## hydrazine borate [#2]
[2]
  Appearance of the solution / precipitate formation: transparent solutions
[1]; [10]
  pH: 8.42

## hydrazine borate [#11]
[1]; [9]
  pH: 8.37

## dilithium octaborate [dilithium octaborate (LOB)]
[3]
  BAE at room temperature: 24.1 % BAE

## hydrazine borate [#7]
[1]; [9]
  pH: 8.45

## borate
[4]
  Toxicity titer: 3.0 kg/m^3 BAE
[5]
  Toxicity titer: < 3.0 kg/m^3 BAE
[6]
  Toxicity titer: 1.0-1.5 kg/m^3 BAE
[7]
  Toxicity titer: 1.2 kg/m^3 BAE

## hydrazine borate [#1]
[2]
  Appearance of the solution / precipitate formation: transparent solutions
[1]; [10]
  pH: 9.50

## N.O=BOB1OB2OB(O)OB(O1)O2 [ammonium pentaborate (APB), ammonium pentaborate]
[3]
  BAE at room temperature: 10.6 % BAE

## hydrazine borate [#8]
[1]; [9]
  pH: 8.42
[8]; diluted 1:1 in distilled water, 1 Days
  Precipitation over time: N
[8]; diluted 1:1 in distilled water, 3 Days
  Precipitation over time: N
[8]; diluted 1:1 in distilled water, 5 Days
  Precipitation over time: N
[8]; diluted 1:1 in distilled water, 7 Days
  Precipitation over time: N
[8]; diluted 2:1 in distilled water, 1 Days
  Precipitation over time: N
[8]; diluted 2:1 in distilled water, 3 Days
  Precipitation over time: N
[8]; diluted 2:1 in distilled water, 5 Days
  Precipitation over time: N
[8]; diluted 2:1 in distilled water, 7 Days
  Precipitation over time: N
[8]; diluted 3:1 in distilled water, 1 Days
  Precipitation over time: N
[8]; diluted 3:1 in distilled water, 3 Days
  Precipitation over time: N
[8]; diluted 3:1 in distilled water, 5 Days
  Precipitation over time: N
[8]; diluted 3:1 in distilled water, 7 Days
  Precipitation over time: N

## hydrazine borate [#3]
[1]; [10]
  pH: 7.45

## hydrazine borate [#9]
[1]; [9]
  pH: 8.41

## hydrazine borate [#6]
[1]; [10]
  pH: 6.59

## O.O.O.O.O=BOB1OB(OB=O)OB2OB([O-])OB([O-])OB(O1)O2.[Na+].[Na+] [disodium octaborate tetrahydrate (DOT), disodium octaborate tetrahydrate]
[3]
  BAE at room temperature: 11.6 % BAE

## hydrazine borate [#4]
[1]; [10]
  pH: 6.13
